Results published in ChEMBL document CHEMBL1201862, “PubChem BioAssay data set” (2004).
Activity calls are given as the source filed them.

Assays:
[1] = biological target: Melanin-concentrating hormone receptor 1 (Homo sapiens, UniProt Q99705); experiment: Fluorescence-based counterscreen for antagonists of the G-protein coupled receptor 7 (GPR7): cell-based high throughput dose response assay to identify antagonists of the melanin-concentrating hormone receptor 1 (MCHR1).; format: functional
[2] = biological target: T1, Neuropeptides B/W receptor type 1 (Homo sapiens, UniProt P48145); experiment: Fluorescence-based dose response cell-based high throughput screening assay to identify antagonists of the G-protein coupled receptor 7 (GPR7). [Related pubchem assays: 1952 (Screening assay (GPR7 antagonists).), 1880 (Summary AID.)]; format: functional
T1 sequence (P48145 whole entry): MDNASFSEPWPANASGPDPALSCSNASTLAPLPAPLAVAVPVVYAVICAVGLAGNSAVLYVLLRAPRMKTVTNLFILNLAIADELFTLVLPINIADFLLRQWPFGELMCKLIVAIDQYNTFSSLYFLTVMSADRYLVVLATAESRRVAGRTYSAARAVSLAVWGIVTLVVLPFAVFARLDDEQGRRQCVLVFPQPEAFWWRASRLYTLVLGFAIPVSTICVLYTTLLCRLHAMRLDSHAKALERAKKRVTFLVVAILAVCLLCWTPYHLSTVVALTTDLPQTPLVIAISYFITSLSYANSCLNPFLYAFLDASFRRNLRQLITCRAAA

[3] = biological target: T2, Neuropeptide Y receptor type 2 (Homo sapiens, UniProt P49146); experiment: Fluorescence-based counterscreen for agonists of NPY-Y1: cell-based high-throughput dose response assay for agonists of NPY-Y2.; format: functional
T2 sequence (P49146 whole entry): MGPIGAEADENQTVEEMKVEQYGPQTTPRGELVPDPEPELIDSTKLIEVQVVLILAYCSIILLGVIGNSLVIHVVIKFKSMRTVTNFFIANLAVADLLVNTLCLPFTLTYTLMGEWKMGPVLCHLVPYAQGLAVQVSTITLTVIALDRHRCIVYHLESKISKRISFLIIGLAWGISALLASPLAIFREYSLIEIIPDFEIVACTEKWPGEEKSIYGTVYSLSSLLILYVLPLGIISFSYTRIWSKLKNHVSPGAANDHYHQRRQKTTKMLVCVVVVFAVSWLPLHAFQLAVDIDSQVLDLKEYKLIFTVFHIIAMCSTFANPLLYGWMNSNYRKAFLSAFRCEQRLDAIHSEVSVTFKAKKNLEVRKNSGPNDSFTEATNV

[4] = biological target: T2, Neuropeptide Y receptor type 2; experiment: Fluorescence counterscreen for potentiators or agonists of NPY-Y1: Cell-based high-throughput dose response assay for potentiators or agonists of NPY-Y2.; format: functional
[5] = system: Streptococcus sp. 'group A'; experiment: Streptococcus pyogenes SK(-)GAS viability under kanamycin – luminescence, BacTiterGlo, confirmation, counter-screen for streptokinase expression inhibitor project, dose response (AID 1900); format: functional, organism-based
[6] = M. tuberculosis H37Rv growth inhibitors, H37Rv strain (AID 1626); format: functional
Streptococcus = experiment: GAS UMAA2166 growth inhibition – luminescence, BacTiterGlo, counter-screen for streptokinase expression inhibitor project, dose response (AID 1915); format: functional, organism-based;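 also: potency for reduction of bacterial viability or growth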
[7] = biological target: T3, Neuropeptide Y receptor type 1 (Homo sapiens, UniProt P25929); experiment: Fluorescence-based dose response cell-based high-throughput screening assay for potentiators or agonists of NPY-Y1.; format: functional
T3 sequence (P25929 whole entry): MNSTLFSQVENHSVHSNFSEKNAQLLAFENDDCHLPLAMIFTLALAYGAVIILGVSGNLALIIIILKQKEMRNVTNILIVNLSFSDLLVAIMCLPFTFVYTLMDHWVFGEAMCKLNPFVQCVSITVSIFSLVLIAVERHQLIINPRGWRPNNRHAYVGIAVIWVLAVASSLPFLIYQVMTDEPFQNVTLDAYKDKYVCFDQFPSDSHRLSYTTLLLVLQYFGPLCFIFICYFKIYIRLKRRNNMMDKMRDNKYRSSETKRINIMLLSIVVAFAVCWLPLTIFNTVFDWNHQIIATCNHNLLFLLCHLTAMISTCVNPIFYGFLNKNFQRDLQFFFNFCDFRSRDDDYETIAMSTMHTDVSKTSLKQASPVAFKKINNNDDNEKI

Streptokinase A = biological target: T4, Streptokinase A (Streptococcus pyogenes serotype M1, UniProt P10520); experiment: viability-normalized secreted streptokinase activity reduction – plasminogen activation absorbance, OD405, dose response (AID 1914); format: functional, Streptococcus pyogenes M1 GAS;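 also: secreted streptokinase activity via plasminogen activation per viability signal from cell pellet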
T4 sequence (P10520 whole entry): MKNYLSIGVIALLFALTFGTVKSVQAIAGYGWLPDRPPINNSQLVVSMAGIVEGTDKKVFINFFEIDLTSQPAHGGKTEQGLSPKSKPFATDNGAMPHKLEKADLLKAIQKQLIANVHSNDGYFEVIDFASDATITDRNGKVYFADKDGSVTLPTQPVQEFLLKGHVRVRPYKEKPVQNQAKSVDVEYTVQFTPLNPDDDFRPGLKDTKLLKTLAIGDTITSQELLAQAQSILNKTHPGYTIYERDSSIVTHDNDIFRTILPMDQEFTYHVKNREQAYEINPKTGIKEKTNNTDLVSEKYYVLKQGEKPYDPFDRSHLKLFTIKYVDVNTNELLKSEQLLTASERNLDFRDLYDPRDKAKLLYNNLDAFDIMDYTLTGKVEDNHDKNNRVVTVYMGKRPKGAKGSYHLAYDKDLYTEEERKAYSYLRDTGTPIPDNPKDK

HEK293 = experiment: Fluorescence-based counterscreen for potentiators or agonists of NPY-Y1: cell-based high-throughput dose response assay for inhibitors of cyclic nucleotide gated ion channel (CNGC) activity. In this assay, the parental HEK293 cell line transfected with a cyclic-nucleotide gated ion channel (CNGC)-based cAMP sensor is used to measure inhibition of isoproterenol-induced CNGC …; format: functional; conditions: Homo sapiens
[8] = fluconazole-exposed Candida albicans growth modulators – fluorescence, retest, confirmation (AID 2467); format: functional, cell-based
[9] = biological target: T5, Serine/threonine-protein phosphatase (Candida dubliniensis (strain CD36 / CBS 7987 / NCPF 3949 / NRRLY-17841) (Yeast), UniProt B9W6M3); experiment: blockers of CaCl2-induced CDRE-lacZ signaling – S. cerevisiae, luminescence, secondary, dose response (AID 2388); format: functional, cell-based;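 also: yeast reporter cells carrying a calcineurin-responsive lacZ construct stimulated with calcium chloride; luminescent beta-galactosidase reporter signal in whole cells rather than isolated phosphatase activity; potency for inhibition where a drop in reporter signal means calcineurin blockade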
T5 sequence (B9W6M3 whole entry): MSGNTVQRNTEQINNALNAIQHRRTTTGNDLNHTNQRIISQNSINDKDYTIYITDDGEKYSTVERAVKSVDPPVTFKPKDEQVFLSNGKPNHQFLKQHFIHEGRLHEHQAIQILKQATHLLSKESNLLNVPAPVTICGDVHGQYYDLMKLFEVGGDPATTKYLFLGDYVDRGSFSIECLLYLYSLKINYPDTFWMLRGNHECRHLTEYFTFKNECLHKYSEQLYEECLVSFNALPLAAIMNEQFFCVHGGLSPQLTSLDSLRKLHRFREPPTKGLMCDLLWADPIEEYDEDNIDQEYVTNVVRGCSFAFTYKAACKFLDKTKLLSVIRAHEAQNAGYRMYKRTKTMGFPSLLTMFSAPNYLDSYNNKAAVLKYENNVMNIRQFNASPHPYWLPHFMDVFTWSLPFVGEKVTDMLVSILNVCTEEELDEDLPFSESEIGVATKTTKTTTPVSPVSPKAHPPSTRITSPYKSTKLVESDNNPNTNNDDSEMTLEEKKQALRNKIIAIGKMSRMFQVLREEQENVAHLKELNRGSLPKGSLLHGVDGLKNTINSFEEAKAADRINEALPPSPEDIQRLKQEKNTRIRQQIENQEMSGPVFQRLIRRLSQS

[10] = biological target: ATP-dependent molecular chaperone HSP82 (Candida albicans (strain WO-1) (Yeast), UniProt C4YTQ8); experiment: steroid-induced GRE reporter decrease in yeast – S. cerevisiae, luminescence, Hsp90 inhibitor project, dose response (AID 2400); format: functional, cell-based;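 also: beta-galactosidase luminescence from glucocorticoid response element reporter as proxy for Hsp90 function; inhibitor potency where signal loss means Hsp90 inhibition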
ATP-dependent molecular chaperone HSP82, sequence (C4YTQ8 whole entry, the tested form may be a part): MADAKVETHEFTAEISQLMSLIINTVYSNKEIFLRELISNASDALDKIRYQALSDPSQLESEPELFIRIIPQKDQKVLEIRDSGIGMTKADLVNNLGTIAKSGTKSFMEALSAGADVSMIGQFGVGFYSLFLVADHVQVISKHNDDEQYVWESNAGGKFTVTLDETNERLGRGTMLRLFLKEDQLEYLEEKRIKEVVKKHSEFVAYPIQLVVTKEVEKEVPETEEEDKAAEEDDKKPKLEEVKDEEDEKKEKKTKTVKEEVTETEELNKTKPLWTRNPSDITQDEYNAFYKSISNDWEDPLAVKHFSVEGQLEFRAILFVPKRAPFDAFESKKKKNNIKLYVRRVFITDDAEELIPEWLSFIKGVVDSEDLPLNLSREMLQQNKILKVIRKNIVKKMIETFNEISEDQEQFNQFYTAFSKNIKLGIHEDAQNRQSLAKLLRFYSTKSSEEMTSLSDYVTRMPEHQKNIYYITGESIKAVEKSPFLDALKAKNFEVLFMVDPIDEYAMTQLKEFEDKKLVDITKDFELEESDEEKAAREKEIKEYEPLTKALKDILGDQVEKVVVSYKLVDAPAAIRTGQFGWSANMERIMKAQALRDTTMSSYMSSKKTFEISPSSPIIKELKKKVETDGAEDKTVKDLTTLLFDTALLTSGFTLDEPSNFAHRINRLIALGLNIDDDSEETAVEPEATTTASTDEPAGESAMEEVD

[11] = CCR5-tropic HIV-1 fusion blockers – cell-based, CCR5-tropic Env, dose response (AID 2279); format: functional
[12] = NIH-3T3 fibroblast cytotoxicity, dose response, cytotoxicity control, cell-based, fluorescence, Alamar Blue, secondary assay (AID 2327); format: functional;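 also: NIH-3T3 mouse fibroblasts cultured with fluconazole at 8 µg/mL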
Large T antigen = Large T antigen (Simian virus 40, UniProt P03070); format: functional, Betapolyomavirus macacae;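 also: Confirmatory-stage PubChem screen for compounds that inhibit SV40 T antigen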
Large T antigen, sequence (P03070 whole entry): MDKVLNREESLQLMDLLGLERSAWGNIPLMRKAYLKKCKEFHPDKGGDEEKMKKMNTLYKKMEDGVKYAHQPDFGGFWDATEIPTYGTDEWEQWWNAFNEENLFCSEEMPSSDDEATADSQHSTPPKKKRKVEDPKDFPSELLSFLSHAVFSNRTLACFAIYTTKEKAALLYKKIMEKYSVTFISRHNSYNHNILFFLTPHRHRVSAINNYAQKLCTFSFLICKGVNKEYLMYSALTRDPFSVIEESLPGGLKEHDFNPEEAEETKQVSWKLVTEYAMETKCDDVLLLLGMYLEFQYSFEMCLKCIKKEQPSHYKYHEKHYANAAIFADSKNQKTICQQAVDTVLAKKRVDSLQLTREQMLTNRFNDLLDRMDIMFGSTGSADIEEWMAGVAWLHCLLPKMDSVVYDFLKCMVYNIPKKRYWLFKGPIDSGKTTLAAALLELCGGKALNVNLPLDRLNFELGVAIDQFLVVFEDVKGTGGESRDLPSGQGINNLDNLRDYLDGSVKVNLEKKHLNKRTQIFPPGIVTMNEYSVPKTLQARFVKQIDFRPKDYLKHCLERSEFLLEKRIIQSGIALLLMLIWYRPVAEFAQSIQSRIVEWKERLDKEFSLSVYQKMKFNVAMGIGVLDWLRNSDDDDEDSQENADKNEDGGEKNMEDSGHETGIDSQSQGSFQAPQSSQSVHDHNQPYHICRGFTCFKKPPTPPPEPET

Cytochrome P450 2D6 = Cytochrome P450 2D6 (Homo sapiens, UniProt P10635); experiment: qHTS Assay for Inhibitors and Substrates of Cytochrome P450 2D6. [Related pubchem assays: 410 ]; format: ADME; conditions: read-out: Potency
Cytochrome P450 2D6, sequence (P10635 whole entry): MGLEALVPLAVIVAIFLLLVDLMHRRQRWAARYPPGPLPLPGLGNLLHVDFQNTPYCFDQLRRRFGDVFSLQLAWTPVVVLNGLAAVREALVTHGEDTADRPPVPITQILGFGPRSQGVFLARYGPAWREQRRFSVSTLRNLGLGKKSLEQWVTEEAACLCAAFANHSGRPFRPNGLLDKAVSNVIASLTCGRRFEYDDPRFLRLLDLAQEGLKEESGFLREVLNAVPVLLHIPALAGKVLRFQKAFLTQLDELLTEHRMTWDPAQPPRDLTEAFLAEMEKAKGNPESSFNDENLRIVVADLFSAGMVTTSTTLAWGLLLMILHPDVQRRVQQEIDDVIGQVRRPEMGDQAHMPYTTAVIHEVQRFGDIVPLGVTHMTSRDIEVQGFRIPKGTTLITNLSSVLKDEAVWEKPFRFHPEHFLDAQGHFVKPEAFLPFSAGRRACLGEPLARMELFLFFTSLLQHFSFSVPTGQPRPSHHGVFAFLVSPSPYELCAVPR

[13] = biological target: T3, Neuropeptide Y receptor type 1; format: functional
[14] = biological target: T2, Neuropeptide Y receptor type 2; format: functional, cell-based

Melanin-concentrating hormone receptor 1, sequence (Q99705 whole entry): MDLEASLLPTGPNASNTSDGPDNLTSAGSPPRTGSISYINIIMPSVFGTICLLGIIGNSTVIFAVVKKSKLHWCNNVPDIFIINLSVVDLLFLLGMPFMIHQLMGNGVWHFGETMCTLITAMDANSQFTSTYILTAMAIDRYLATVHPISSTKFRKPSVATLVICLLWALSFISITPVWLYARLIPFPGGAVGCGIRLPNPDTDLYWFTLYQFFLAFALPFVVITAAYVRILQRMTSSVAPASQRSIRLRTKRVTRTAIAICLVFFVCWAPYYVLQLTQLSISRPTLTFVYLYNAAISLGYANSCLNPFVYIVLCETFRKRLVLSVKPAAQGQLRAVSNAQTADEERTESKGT

In the case of `COc1ccc(OC)c(NS(=O)(=O)c2c(C(=O)N3CCCCCC3)c(C)n(C)c2C)c1`, the IC50 [1] is reported as > 43.8 µM (not active) and the IC50 [2] is reported as > 43.8 µM (not active).

With `Clc1ccc(-n2c(-c3cccc(Br)c3)nc3nc4ccccc4nc32)cc1` the EC50 [3] was 2.98 µM (active), the EC50 [4] was 12 µM (not active) and the EC50 [5] was 1.58 µM (active). For the same compound, the IC50 [6] was > 100 µM (active), the EC50 (Streptococcus) was 79.4 µM (active) and the EC50 [7] was 10.1 µM (not active). For the same compound, the EC50 (Streptokinase A) was > 150 µM (not active) and the IC50 (HEK293) was 5.7 µM (active).

In the case of `O=C(N/N=C/c1cc(Br)c(O)c(Br)c1)c1cc2c(ccc3ccccc32)o1`, the EC50 [8] is reported as 1.45 µM (active), the EC50 [9] is reported as 2.58 µM (active) and the EC50 [10] is reported as 0.763 µM (active). For the same compound, the IC50 [11] was > 50 µM (active), the EC50 [12] was 64.7 µM (active) and the IC50 (Large T antigen) was 19.9 µM (active).

With `C=C(C)C(O)/C=C/c1ccc(Br)cc1` (centres undefined) the AC50 (Cytochrome P450 2D6) was 3.16 µM (inconclusive).

In the case of `CCCCNC(=O)c1onc(CSc2ccccc2F)c1C(=O)O`, the IC50 [13] is reported as 14.7 µM (not active) and the IC50 [14] is reported as 13.3 µM (not active).
